Measurements taken from patent US20240335547A1, “MODIFIED CHOLIC ACID CONJUGATES” (priority 2022, published 2024).
In brackets after ≈: the same amount, converted by molar mass. Several values for one entry are separate records, joined by “and”; a condition that tells them apart may be missing. Equal entries are not always repeated. Where two headings read alike, the source gives them in different places.

Columns and labels:
[1] = Cytotoxicity in human primary cell cultures (Trypan Blue Staining); assay type: cell-based; conditions: human, CC50
Description: (1) HFF (human foreskin fibroblast) cells (2×105) were seeded with 2 ml of DMEM medium supplemented with 10% FBS in each well of two 12-well tissue culture plates. (2) Cells were cultured for 3 days. CSA-44 was added to test for cell toxicity. Eleven concentrations were tested: 40 μg/ml, 30 μg/ml, […], 17.5 μg/ml, 15 μg/ml, 12.5 μg/ml, 10 μg/ml, 7.5 μg/ml, 5 μg/ml, 2.5 μg/ml, and 1 μg/ml. Samples with concentration of 0 μg/ml were used as the control. Each concentration was tested in duplicates with two wells. (3) Cells were cultured for 48 hours with CSA-44. Trypan Blue Staining was used to determine the numbers of living and dead cells on a hemocytometer. Percentages of living and dead cells in each sample were calculated.
(1) HFF cells (2×105) were seeded with 2 ml of DMEM medium supplemented with 10% FBS in each well of two 12-well tissue culture plates. (2) Cells were cultured for 3 days. CMA Conjugate was added to test for cell toxicity. Eleven concentrations were tested. They were 100 μg/ml, 80 μg/ml, 60 μg/ml, 50 μg/ml, 40 μg/ml, 30 μg/ml, 25 μg/ml, 20 μg/ml, 15 μg/ml, 10 μg/ml, and 5 μg/ml. Samples with concentration of 0 μg/ml were used as the control. Each concentration was tested in duplicates with two wells. (3) Cells were cultured for 48 hours with CMA Conjugate. […] Percentages of living and dead cells in each sample were calculated.

Calu-3 cells = test: Cytotoxicity Assay (MTS); assay type: cell-based; conditions: 24 h
Description: Calu-3 cells were seeded in 96-well plates one day prior to testing. At 80-90% confluency, growth medium was removed and replaced with a medium containing 50 μg/mL of compound 12 dilutions. All treatments were added in quadruplicate or quintuplicate wells. Plates were incubated for 24 h before being washed and replaced with fresh untreated growth medium. MTS was added to each well as recommended by the manufacturer's protocol (CellTiter 96 Aqueous One Solution Cell Proliferation Assay, Promega, Madison, WI, USA) and incubated for 3-4 h.
After incubation, absorbance was measured at 490 nm on a SpectraMax M5 (Molecular Devices, LLC, San Jose, CA, USA) plate reader with SoftMax Pro 6.2.1 software.

[2] = tested on: Golgi apparatus, mitochondria, and endoplasmic reticulum (ER); assay type: cell-based, human
From the text: The effect of compound 12 was studied on cellular structures and organelles such as Golgi apparatus, mitochondria, and endoplasmic reticulum (ER).

[3] = target: 3CL Protease (SARS-COV-2) (Severe acute respiratory syndrome coronavirus 2, UniProt P0DTD1); test: 3CL Protease (SARS-COV-2) Inhibitor Assay; assay type: biochemical
Description: The compound is dissolved in DMSO. A series of dilutions were prepared with 5% DMSO in 3CL Protease assay buffer. 10 μl of the dilution was added to a 50 μl reaction so that the final concentration of DMSO is 1% in all of the reactions. The compound was pre-incubated in duplicate at room temperature for 30 minutes in a mixture containing 3CL Pro assay buffer, 3CL enzyme and a test compound. After 30 minutes, the enzymatic reactions were initiated by the addition of 3CL Protease substrate. The enzymatic reaction proceeded for 4 hours at room temperature. Fluorescence intensity was measured at an excitation of 360 nm and an emission of 460 nm using a Tecan Infinite M1000 microplate reader.

TNF-α = TNF-α production in HEK293 Cells; assay type: cell-based; conditions: 5 μg/ml
From the text: It was confirmed that Compound 12 stimulates TNF-α production in HEK293 Cells.

HCoV-229E = test: In vivo viral load in mice lung tissue; set-up: species or system BALB/c mice; conditions: 2 days and 3 days post-treatment, versus control mice
Description: FIG. 6 illustrates the in vivo viral load reduction in mice lung tissue administered Compound 12 compared to control mice that were not administered a compound of the disclosure. In the Group administered Compound 12, a substantial (30-200 fold) reduction of virus replication and production was recorded 2 days and 3 days post-treatment.
Group C: Infection with 229E, treated with PBS: Thirty five (35) BALB/c 6-weeks old female mice were used for this group. Mice were first anesthetized with isoflurane. Each mouse was intranasally infected with 1×105 plaque forming unit (pfu) of HCoV-229E and then treated with PBS (75 ul) 24 hours later. Mice were sacrificed at 24 hrs post infection, and 24 hrs, 48 hrs, 72 hrs, 6 days, and 7 days post treatment. The lungs from these mice were collected for viral load, immunohistochemistry and cytokines analysis.
Group D: Infection with 229E, treated with Compound 12: Forty Five (45) BALB/c 6-weeks old female mice were used for this group. Mice were first anesthetized with isoflurane. Each mouse was intranasally infected with 1×10^5 pfu of HCoV-229E and then treated with 0.5 mg of Compound 12 diluted in PBS (75 ul) 24 hours later. Mice from this group were sacrificed at 24 hrs, 48 hrs, 72 hrs, 6 days and 7 days post treatment. The lungs from these mice were collected for viral load, immunohistochemistry and cytokines analysis.

Candida albicans = test: Fungicidal activity MIC/MBC; assay type: cell-based; conditions: Yeast
MRSA = test: Bactericidal activity MIC/MBC; assay type: cell-based; conditions: Staphylococcus aureus
[4] = tested on: Calu-3 cells (ATCC #HTB-55); conditions: for % Luminescence / Luminescence intensity: 3 repeats

C[C@H](CCC(=O)NCCNC(=O)CCCC[C@@H]1SCC2NC(=O)NC21)C1CCC2C3C(C[C@H](OC(=O)CCN)[C@@]21C)[C@@]1(C)CC[C@@H](OC(=O)CCN)CC1C[C@H]3OC(=O)CCN (some centres unmarked) [Compound 12]
CC50 at 48 h [1]: ~65 µg/mL (≈ 73 µM) | IC50 (i.e., CC50) (Calu-3 cells): 154 µM | effect on overall structure and organization of cellular structures and organelles [2]: did not affect the overall structure and organization | IC50 [3]: > 10 µM | % Activity ([3]; 0.0003 μM, 2 repeats): 101% | activity at 0.0003 µM ([3]; 0.0003 μM, 2 repeats): 99% | activity at 0.001 µM ([3]; 0.001 μM, 2 repeats): 103% | activity at 0.003 µM ([3]; 0.003 μM, 2 repeats): 103% | % Activity ([3]; 0.01 μM, 2 repeats): 100% | activity at 0.01 µM ([3]; 0.01 μM, 2 repeats): 96% | activity at 0.03 µM ([3]; 0.03 μM, 2 repeats): 95% | % Activity ([3]; 0.1 μM, 2 repeats): 89% | activity at 0.1 µM ([3]; 0.1 μM, 2 repeats): 90% | % Activity ([3]; 0.3 μM, 2 repeats): 88% | activity at 0.3 µM ([3]; 0.3 μM, 2 repeats): 91% | % Activity ([3]; 1 μM, 2 repeats): 89% | activity at 1 µM ([3]; 1 μM, 2 repeats): 90% | % Activity ([3]; 3 μM, 2 repeats): 79% | activity at 3 µM ([3]; 3 μM, 2 repeats): 82% | inhibition at 10 µM ([3]; 10 μM): 24% | % Activity ([3]; 10 μM, 2 repeats): 77% | activity at 10 µM ([3]; 10 μM, 2 repeats): 75% | TNF-α generated (TNF-α): 7,123 pg/ml | reduction of virus replication and production (HCoV-229E): 30-200 fold | MBC (Candida albicans): 66.2 µg/mL (≈ 74.4 µM) | MIC (Candida albicans): 66.2 µg/mL (≈ 74.4 µM) | MBC (MRSA): 1060 µg/mL (≈ 1190 µM) | MIC (MRSA): 530 µg/mL (≈ 595 µM) | % Luminescence ([4]; 20 uM): 102% and 97% and 101% | Luminescence intensity ([4]; 20 uM): 27,723 and 26,322 and 27,521 | % Luminescence ([4]; 26.7 uM): 103% and 97% and 99% | Luminescence intensity ([4]; 26.7 uM): 27,962 and 26,310 and 26,857 | % Luminescence ([4]; 35.6 uM): 105% and 103% and 104% | Luminescence intensity ([4]; 35.6 uM): 28,560 and 28,084 and 28,199 | % Luminescence ([4]; 47.5 uM): 110% and 105% and 104% | Luminescence intensity ([4]; 47.5 uM): 29,946 and 28,451 and 28,177 | % Luminescence ([4]; 63.3 uM): 111% and 110% and 106% | Luminescence intensity ([4]; 63.3 uM): 30,079 and 29,936 and 28,795 | % Luminescence ([4]; 84.4 uM): 110% and 109% and 108% | Luminescence intensity ([4]; 84.4 uM): 29,975 and 29,736 and 29,345 | % Luminescence ([4]; 112.5 uM): 108% and 106% and 105% | Luminescence intensity ([4]; 112.5 uM): 29,458 and 28,788 and 28,587 | % Luminescence ([4]; 150 uM): 107% and 104% and 106% | Luminescence intensity ([4]; 150 uM): 29,194 and 28,202 and 28,754 | % Luminescence ([4]; 200 uM): 111% and 107% and 106% | Luminescence intensity ([4]; 200 uM): 30,150 and 29,181 and 28,872 | CC50 ([4]; human, 3 days): > 200 µM
